A word on the melting point: it is the temperature, or range, at which the solid turns liquid. In turn, `COc1cc(CC(=O)N2CC[C@@H](Oc3ccc(C(=O)O)cc3)C2)ccc1NC(=O)Nc1ccccc1Cl` [Compound 186, 4-[1-[4-[N′-(2-chlorophenyl)ureido]-3-methoxyphenylacetyl]-(3R)-pyrrolidinyloxy]benzoic acid] had a melting point of 193 to 194 °C.
Regarding `COc1cc(CC(=O)N2CC[C@@H](Oc3ccc(C(=O)O)cc3)C2)ccc1NC(=O)Nc1ccccc1Br` [Compound 187, 4-[1-[4-[N′-(2-bromophenyl)ureido]-3-methoxyphenylacetyl]-(3R)-pyrrolidinyloxy]benzoic acid], the melting point was in the range of 175 to 177 °C.
With `COc1cc(CC(=O)NCCOc2ccc(C(=O)O)cc2OC)ccc1NC(=O)Nc1ccccc1C` [Compound 255, 3-methoxy-4-[2-[3-methoxy-4-[N′-(2-methylphenyl)ureido]phenylacetyl]aminoethoxy]benzoic acid], the melting point was in the range of 180 to 181 °C.
In turn, `COc1cc(CC(=O)NCCOc2ccc(C(=O)O)cc2[N+](=O)[O-])ccc1NC(=O)Nc1ccccc1C` [Compound 257, 3-nitro-4-[2-[3-methoxy-4-[N′-(2-methylphenyl)ureido]phenylacetyl]aminoethoxy]benzoic acid] returned a melting point of 112 to 115 °C.
Turning to `COc1cc(CC(=O)N2CCN(c3ccc(C(=O)O)cc3)CC2)ccc1NC(=O)Nc1ccccc1C` [Compound 259], the melting point lay within 240 to 245 °C.
The same measure for `COc1cc(CC(=O)N[C@H](C)COc2ccc(C(=O)O)cc2OC)ccc1NC(=O)Nc1ccccc1C` [Compound 260, (R)-3-methoxy-4-[2-[3-methoxy-4-[N′-(2-methylphenyl)ureido]phenylacetylamino]-1-propoxy]benzoic acid]: 168 to 169 °C; for `COc1cc(CC(=O)N(CCOc2ccc(C(=O)O)cc2OC)CCN2CCN(C)CC2)ccc1NC(=O)Nc1ccccc1C` [Compound 263]: 155 to 160 °C.
With `COc1cc(CC(=O)N[C@@H](C)COc2ccc(C(=O)O)cc2)ccc1NC(=O)Nc1ccccc1C` [Compound 272, (S)-4-[2-[3-methoxy-4-[N′-(2-methylphenyl)ureido]phenylacetylamino]-1-propoxy]benzoic acid] the figure was 198 to 201 °C.
The same measure for `Cc1ccccc1NC(=O)Nc1ccc(CC(=O)N[C@@H](C)COc2ccc(C(=O)O)cc2)cc1` [Compound 273, (S)-4-[2-[4-[N′-(2-methylphenyl)ureido]phenylacetylamino]-1-propoxy]benzoic acid]: 262 to 265 °C; for `Cc1ccccc1NC(=O)Nc1ccc(CC(=O)N[C@@H](C)COc2ccc(C(=O)O)cc2Cl)cc1` [Compound 274, (S)-3-chloro-4-[2-[4-[N′-(2-methylphenyl)ureido]phenylacetylamino]-1-propoxy]benzoic acid]: 228 to 231 °C.
Compound `COc1cc(CC(=O)N[C@@H](C)COc2ccc(C(=O)O)cc2Cl)ccc1NC(=O)Nc1ccccc1C` [Compound 275, (S)-3-chloro-4-[2-[3-methoxy-4-[N′-(2-methylphenyl)ureido]phenylacetylamino]-1-propoxy]benzoic acid] registered a melting point of 198 to 201 °C.
In the case of `COc1cc(CC(=O)N(C)CCOc2ccc(C(=O)O)cc2N(C)C)ccc1NC(=O)Nc1ccccc1C` [Compound 276, 3-dimethylamino-4-[[2-[3-methoxy-4-[N′-(2-methylphenyl)ureido]phenylacetyl]methylamino]ethoxy]benzoic acid], the melting point was in the range of 125 to 130 °C.
`COc1cc(CC(=O)N(C)CCOc2ccc(C(=O)O)cc2N(C)C)ccc1NC(=O)Nc1ccccc1F` [Compound 277, 3-dimethylamino-4-[[2-[3-methoxy-4-[N′-(2-fluorophenyl)ureido]phenylacetyl]methylamino]ethoxy]benzoic acid] had a melting point of 120 to 125 °C.
The same measure for `Cc1ccccc1NC(=O)Nc1ccc(CC(=O)N(C)CCOc2ccc(C(=O)O)cc2N(C)C)cc1` [Compound 278]: 110 to 115 °C.

Values taken from patent US7179819B2, “VLA-4 inhibitor compounds” (Daiichi Pharmaceutical Co., Ltd., priority 1999, dated 2007).
